In patent publication US10000488B2, “Heterocyclic compound” (TAKEDA PHARMACEUTICAL COMPANY LIMITED, priority 2014, dated 2018):

Tests used:
[1] = target: T1, RORγt (Homo sapiens, UniProt P51449); assay: RORγt binding test using fluorescent-labeled synthetic ligand (TR-FRET); details: test compound 1 μM; read-out: binding inhibitory rate (%) of fluorescent-labeled synthetic ligand to RORγt at test compound 1 μM
T1 sequence (P51449 1-497 isoform P51449-2): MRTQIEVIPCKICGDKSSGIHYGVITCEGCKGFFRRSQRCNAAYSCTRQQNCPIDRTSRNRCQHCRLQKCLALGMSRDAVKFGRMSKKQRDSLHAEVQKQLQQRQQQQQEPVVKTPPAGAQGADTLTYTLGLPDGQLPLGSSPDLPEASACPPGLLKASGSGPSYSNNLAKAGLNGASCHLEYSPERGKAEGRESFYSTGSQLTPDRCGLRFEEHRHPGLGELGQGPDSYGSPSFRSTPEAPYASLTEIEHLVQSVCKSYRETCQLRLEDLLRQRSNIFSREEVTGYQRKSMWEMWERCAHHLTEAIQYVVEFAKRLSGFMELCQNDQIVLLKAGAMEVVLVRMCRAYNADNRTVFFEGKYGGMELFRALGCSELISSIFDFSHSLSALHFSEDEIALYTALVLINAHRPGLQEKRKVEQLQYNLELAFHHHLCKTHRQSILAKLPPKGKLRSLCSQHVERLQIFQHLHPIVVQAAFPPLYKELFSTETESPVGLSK
Method: RORγt Binding Test Using Fluorescent-Labeled Synthetic Ligand
The binding activity of the test compound to RORγt was measured by a time resolved fluorescence resonance energy transfer (TR-FRET) utilizing histidine-tagged RORγt, fluorescent-labeled synthetic ligand, and terbium-labeled anti-histidine tag antibody (Invitrogen). First, a test compound diluted with an assay buffer (20 mM Tris-HCl (pH 7.5), 100 mM NaCl, 1 mM DTT, 0.1% BSA) was added to a 384 well plate by 3 μL. Then, RORγt diluted with an assay buffer to 240 nM was added by 3 μL, after which fluorescent-labeled synthetic ligand diluted with the assay buffer to 12 μM was added by 3 μL, and the mixture was stood at room temperature for 20 min. Thereafter, a terbium-labeled anti-histidine tag antibody diluted with the assay buffer to 8 nM was added by 3 μL. The mixture was stood at room temperature for 20 min, and fluorescence intensity (excitation wavelength 320 nm, fluorescence wavelength 520 nm, delay time 100 microseconds) was measured by Envision (PerkinElmer).

[2] = target: T1, RORγt; assay: Cofactor recruitment test (Alpha Screen, biotinylated SRC-1 peptide); format: biochemical; details: read-out: signal value inhibitory rate (%) at test compound 1 μM
Method: Cofactor Recruitment Test
Cofactor recruitment test was performed by Alpha Screen (Histidine Detection Kit, PerkinElmer) method. First, a test compound was diluted with an assay buffer (50 mM Tris-HCl (pH 7.5), 50 mM KCl, 1 mM DTT, 0.1% BSA) and added to a 384 well plate by 5 μL. […] The mixture was stood in a dark place for 1 hr, and the signal value was measured by Envision (PerkinElmer).

[3] = target: T1, RORγt; assay: Jurkat reporter test (human IL-17 ROR response element luciferase reporter, RORγt vector); format: cell-based; details: test compound 3 μM; Jurkat cells; read-out: luminescence level inhibitory rate (%) at test compound 3 μM
Method: The Jurkat cells used for the reporter test were cultured in a culture medium (RPMI (Invitrogen), 10% FCS (AusGeneX), 100 U/mL penicillin, 100 μg/mL streptomycin). On the day of the test, 4×10^7 cells were recovered by a centrifugal operation (1000 rpm, for 5 min) and suspended in PBS (phosphate buffered saline) (Invitrogen). Thereafter, the cells were recovered again by a centrifugal operation, and suspended in 2 mL of R buffer (NEON transfection kit, Invitrogen). […] Gene transfer was performed by Electroporation apparatus (NEON, Invitrogen) under the conditions of pulse voltage 1350 V, interval 10 milliseconds, number of times 3. The cells after gene transfer were suspended in 40 mL of a reaction medium (RPMI, 10% Lipid reduced FCS (HyClone), 10 mM HEPES (pH 7.5), 100 U/mL penicillin, 100 μg/mL streptomycin, 5 μM lovastatin), and plated in a 96 well plate by 90 μL. A test compound diluted with the reaction medium was added by 10 μL, and the cells were cultured overnight in an incubator. Bright-Glo (Promega) was added by 100 μL, and the mixture was stirred at room temperature for 10 min, and the luminescence level was measured by Envision (PerkinElmer).

Row | Compound | inhibition at 1 µM [1] | inhibition at 1 µM [2] | inhibition at 3 µM [3]
1 | CC(C)n1c(=O)n(CC2CC2)c(=O)c2cc(NC(=O)N3CCC[C@@H](NC(=O)c4ccc5c(c4)CCN(C(=O)OC(C)(C)C)C5)C3)c(F)cc21 [Example 340, tert-butyl 6-(((3R)-1-((3-(cyclopropylmethyl)-7-fluoro-1-isopropyl-2,4-dioxo-1,2,3,4-tetrahydroquinazolin-6-yl)carbamoyl)piperidin-3-yl)carbamoyl)-3,4-dihydroisoquinoline-2 (1H)-carboxylate] | 98% | 92% | 107%
2 | Cc1nc2cc(C(=O)N[C@@H]3CCCN(C(=O)Nc4cc5c(=O)n(CC6CC6)c(=O)n(C(C)C)c5cc4F)C3)ccc2o1 [Example 296, N-((3R)-1-((3-(cyclopropylmethyl)-7-fluoro-1-isopropyl-2,4-dioxo-1,2,3,4-tetrahydroquinazolin-6-yl)carbamoyl)piperidin-3-yl)-2-methyl-1,3-benzoxazole-5-carboxamide] | 102% | 108% | 102%
3 | CC(C)n1c(=O)n(CC2CC2)c(=O)c2cc(NC(=O)N3CCO[C@@H](C(=O)Nc4cnc(C#N)c(Cl)c4)C3)c(F)cc21 [Example 266, (2R)-N^2-(5-chloro-6-cyanopyridin-3-yl)-N^4-(3-(cyclopropylmethyl)-7-fluoro-1-isopropyl-2,4-dioxo-1,2,3,4-tetrahydroquinazolin-6-yl)morpholine-2,4-dicarboxamide] | 102% | 108% | 103%
4 | CC(C)n1c(=O)n(CC2CC2)c(=O)c2cc(NC(=O)N3CCO[C@@H](C(=O)Nc4ccc(C#N)c(F)c4)C3)c(F)cc21 [Example 172, (2R)-N^2-(4-cyano-3-fluorophenyl)-N^4-(3-(cyclopropylmethyl)-7-fluoro-1-isopropyl-2,4-dioxo-1,2,3,4-tetrahydroquinazolin-6-yl)morpholine-2,4-dicarboxamide] | 102% | 111% | 105%
5 | COc1ccc2c(c1)C(=O)N([C@@H]1CCCN(C(=O)Nc3cc4c(=O)n(CC5CC5)c(=O)n(C(C)C)c4cc3F)C1)C2 [Example 303, (3R)—N-(3-(cyclopropylmethyl)-7-fluoro-1-isopropyl-2,4-dioxo-1,2,3,4-tetrahydroquinazolin-6-yl)-3-(6-methoxy-1-oxo-1,3-dihydro-2H-isoindol-2-yl)piperidine-1-carboxamide] | 102% | 107% | 102%
6 | CC(C)n1c(=O)n(CC2CC2)c(=O)c2cc(NC(=O)N3CCC[C@@H](NC(=O)c4ccc(C#N)s4)C3)c(F)cc21 [Example 292, (3R)-3-(((5-cyano-2-thienyl)carbonyl)amino)-N-(3-(cyclopropylmethyl)-7-fluoro-1-isopropyl-2,4-dioxo-1,2,3,4-tetrahydroquinazolin-6-yl)piperidine-1-carboxamide] | 102% | 112% | 101%
7 | CC(C)n1c(=O)n(CC2CC2)c(=O)c2cc(NC(=O)N3CCO[C@@H](C(=O)Nc4cc(F)c(C#N)cc4F)C3)c(F)cc21 [Example 171, (2R)-N^2-(4-cyano-2,5-difluorophenyl)-N^4-(3-(cyclopropylmethyl)-7-fluoro-1-isopropyl-2,4-dioxo-1,2,3,4-tetrahydroquinazolin-6-yl)morpholine-2,4-dicarboxamide] | 101% | 107% | 103%
8 | CC(C)n1c(=O)n(CC2CC2)c(=O)c2cc(NC(=O)N3CCCC(NC(=O)Nc4ccccc4)C3)ccc21 (stereo not drawn) [Example 146, N-(3-(cyclopropylmethyl)-1-isopropyl-2,4-dioxo-1,2,3,4-tetrahydroquinazolin-6-yl)-3-((phenylcarbamoyl)amino) piperidine-1-carboxamide] | 102% | 103% | 101%
9 | COC(=O)c1cccc(C(=O)NC2CCCN(C(=O)Nc3ccc4c(c3)c(=O)n(CC3CC3)c(=O)n4C(C)C)C2)c1 (stereo not drawn) [Example 113, methyl 3-((1-((3-(cyclopropylmethyl)-1-isopropyl-2,4-dioxo-1,2,3,4-tetrahydroquinazolin-6-yl)carbamoyl)piperidin-3-yl)carbamoyl)benzoate] | 102% | 109% | 102%
10 | CC(C)n1c(=O)n(CC2CC2)c(=O)c2cc(NC(=O)N3CCOC(C(=O)Nc4cc(F)c(C#N)cc4F)C3)ccc21 (stereo not drawn) [Example 135, N^2-(4-cyano-2,5-difluorophenyl)-N^4-(3-(cyclopropylmethyl)-1-isopropyl-2,4-dioxo-1,2,3,4-tetrahydroquinazolin-6-yl)morpholine-2,4-dicarboxamide] | 102% | 113% | 99%
11 | CC(C)n1c(=O)n(CC2CC2)c(=O)c2cc(NC(=O)N3CCC[C@@H](N4Cc5ccc(C#N)cc5C4=O)C3)c(F)cc21 [Example 323, (3R)-3-(6-cyano-1-oxo-1,3-dihydro-2H-isoindol-2-yl)-N-(3-(cyclopropylmethyl)-7-fluoro-1-isopropyl-2,4-dioxo-1,2,3,4-tetrahydroquinazolin-6-yl)piperidine-1-carboxamide] | 102% | 108% | 103%
12 | CCNC(=O)OCc1ccc(C(=O)N[C@@H]2CCCN(C(=O)Nc3cc4c(=O)n(CC5CC5)c(=O)n(C(C)C)c4cc3F)C2)cc1 [Example 315, 4-(((3R)-1-((3-(cyclopropylmethyl)-7-fluoro-1-isopropyl-2,4-dioxo-1,2,3,4-tetrahydroquinazolin-6-yl)carbamoyl)piperidin-3-yl)carbamoyl)benzyl ethylcarbamate] | 102% | 94% | 108%
13 | CC(C)n1c(=O)n(CC2CC2)c(=O)c2cc(NC(=O)N3CCC[C@@H](NC(=O)c4ccc(C#N)cc4)C3)c(F)cc21 [Example 284, (3R)-3-((4-cyanobenzoyl)amino)-N-(3-(cyclopropylmethyl)-7-fluoro-1-isopropyl-2,4-dioxo-1,2,3,4-tetrahydroquinazolin-6-yl)piperidine-1-carboxamide] | 102% | 112% | 102%
14 | COc1ccc(C(=O)N[C@@H]2CCCN(C(=O)Nc3cc4c(=O)n(CC5CC5)c(=O)n(C(C)C)c4cc3F)C2)c(F)c1 [Example 291, (3R)-N-(3-(cyclopropylmethyl)-7-fluoro-1-isopropyl-2,4-dioxo-1,2,3,4-tetrahydroquinazolin-6-yl)-3-((2-fluoro-4-methoxybenzoyl)amino)piperidine-1-carboxamide] | 102% | 107% | 101%
15 | COC(=O)NCc1ccc(C(=O)N[C@@H]2CCCN(C(=O)Nc3cc4c(=O)n(CC5CC5)c(=O)n(C(C)C)c4cc3F)C2)cc1 [Example 321, methyl (4-(((3R)-1-((3-(cyclopropylmethyl)-7-fluoro-1-isopropyl-2,4-dioxo-1,2,3,4-tetrahydroquinazolin-6-yl)carbamoyl)piperidin-3-yl)carbamoyl)benzyl)carbamate] | 101% | 105% | 101%
